{"source": "patent US10758536B2", "about": "“Method for treating shingles with N-methanocarbathymidine (N-MCT)” (priority 2015, dated 2020)", "key": {"VZV [1]": {"test_system": "VZV", "experiment": "Skin organ culture topical Assay 3: vehicle comparison", "assay_type": "cell-based, varicella-zoster virus", "experimental": "(§1) Place 36 mL deionized sterile water into small beaker with stir bar. Slowly waft 900 mg of carbopol (980 NF, Lot # CCONLCC013, Lubrizol Corp) into water, avoiding clumps. Add equal volume N-MCT in 20% hydroxypropyl-β-cyclodextrin (Sigma) at 2× to reach the desired concentration. Add 2 drops NaOH (18% solution) to attain a pH near 5.0. Store at 4° C. The 0.5% cidofovir gel was made in a similar manner except that cidofovir was dissolved in water. The DMSO vehicle was prepared by adding a 2% DMSO solution in water to the carbopol suspension at a 1:1 ratio. Hydroxypropyl-β-cyclodextrin (HPBCD) was prepared by mixing 5.0 g with 20 mL sterile water. Stock solution of N-MCT was prepared by dissolving 90 mg N-MCT in 9 mL 20% HPBCD and sonicating for 1 min.\nThis assay compared two vehicles, 1% DMSO and 10% hydroxypropyl-β-cyclodextrin (HPBCD) in carbopol gel, and 0.5% N-MCT in either vehicle. Refer to Assay #3 in Table 4 above. Each group was treated on Days 1-4 and scanned on Day 5, which is the typical assay protocol. The skin specimens were then cultured without drug or vehicle for another 6 days (scans on Day 7 and Day 11) to observe virus rebound. VZV yield was reduced in both Vehicle groups during the treatment phase, and then rebounded. This was likely due to the effects of the slightly acidic carbopol gel. There was little difference between the two vehicles. […] Importantly, there was no rebound in the groups treated with N-MCT. In fact, VZV yield continued to decrease after the treatment stopped."}, "[2]": {"experiment": "Mouse weights and tolerability", "method": "CB.17 scid/beige male mice were implanted subcutaneously with human fetal skin (the same type of specimens used for the skin organ culture assay). After 3 weeks engraftment period, the skin implants were inoculated with VZV-BAC-Luc. The mice were divided into 5 groups of 12 mice: vehicle, positive control drug, N-MCT low dose, medium dose, and high dose (see FIGS. 3A, 3B, 4A and 4B). Treatment began approximately 2 hours after the inoculation surgery and was administered by oral gavage. Treatment continued twice daily (8:30 am and 8:30 pm) on Days 1-7. The mice were scanned in the IVIS-200 instrument daily from Day 1-8. The mice were weighed before the start of the study and daily during the treatment phase.\nCB.17 scid/beige male mice were implanted subcutaneously with human fetal skin (the same type of specimens used for the skin organ culture assay). After 3 weeks engraftment period, the skin implants were inoculated with VZV-BAC-Luc (5×10^3 pfu/implant). The mice were divided into 5 groups of 12 mice: vehicle, positive control drug cidofovir delayed to Days 4-11, N-MCT 50 mg/kg Days 0-7, Days 4-11, or Days 7-13 (see Table 6 below). Treatment began approximately 2 hours after the inoculation surgery and was administered by oral gavage. Treatment continued twice daily (8:30 am and 8:30 pm) on schedule. […] The mice were scanned in the IVIS-200 instrument daily from Day 1-14. The mice were weighed before the start of the study and daily during the treatment phase. The antiviral effects of N-MCT were determined by assessing the VZV growth kinetics and rates (Log10 Total Flux/day).\nThe animals used in this experiment were SCID-beige mice purchased from Taconic (age 6-7 weeks)."}, "VZV [3]": {"test_system": "VZV", "experiment": "Skin organ culture topical Assay 2: delayed treatment", "assay_type": "cell-based, varicella-zoster virus", "experimental": "as §1\nHuman fetal skin was purchased from ABR and delivered by overnight courier on wet ice. The tissue was cleaned, disinfected in betadine and 70% ethanol, then cut into pieces approximately 1-cm^2. Each piece was inoculated with VZV-BAC-Luc strain that expresses firefly luciferase. Approximately 3 hours after inoculation, the pieces of skin were placed in NetWells above tissue culture medium and incubated overnight. The next day (Day 1) each piece of skin was soaked in D-luciferin for 45 min, and then scanned in the IVIS-50 instrument to measure Total Flux, which is a correlate of VZV pfu. The drug treatment began on Day 1 or later by spreading an aqueous gel (carbopol) containing N-MCT at concentrations of 0.05, 0.5, or 5% (see Assay 1 in Table 4 below). One group of skin was treated with cidofovir ([…] in carbopol gel) for a positive control. Each group contained 4-6 pieces of skin. The drug was applied daily until Day 5 (or other intervals), and then the skin pieces were scanned by IVIS to determine virus yield. […] The results were analyzed for statistical significance by ANOVA and Dunnett's post hoc test of multiple comparisons (GraphPad Prism).\nThis assay differs from Assay 1 in that the Vehicle was prepared with 10% HPBCD, which is the solvent for the N-MCT. Refer to Assay #2 in Table 4 above. Three groups were treated on Days 1-4 and scanned on Day 5, which is the typical assay protocol. Two groups were treated after a delay of several days, which more closely reflects a clinical scenario of zoster. All treated groups received the same preparation of 0.5% N-MCT in carbopol with 10% HPBCD. VZV yield was reduced in the Vehicle group during the treatment phase, and then rebounded. This was likely due to the effects of HPBCD, which has known antiviral properties. […] In contrast, VZV yield increased until Day 5 in the group that received no treatment until after this scan. The difference between this group and the Vehicle group was notable, since they were expected to be similar."}, "VZV [4]": {"test_system": "VZV", "experiment": "Delayed N-MCT treatment in SCID-Hu mice", "assay_type": "in vivo, varicella-zoster virus", "settings": "50 mg/kg p.o. BID; treatment delayed 3 or 7 days after VZV infection", "experimental": "Statistical analysis: Data were analyzed using Student's t test or one-way ANOVA and Dunnett's Multiple Comparison post hoc tests. Calculations were made using GraphPad Prism 5.02 for Windows (GraphPad Software, San Diego, Calif., www.graphpad.com). A p<0.05 was considered statistically significant."}, "VZV [5]": {"test_system": "VZV", "experiment": "Skin organ culture Assays 4 and 5: topical ointment vehicles", "assay_type": "cell-based, varicella-zoster virus", "excerpt": "Another objective of the invention was to test N-MCT at 0.5% in a variety of topical formulations in the SOC assay. The purpose was to determine the optimal topical formulation for N-MCT in full-thickness human skin. Human fetal skin was purchased from ABR and delivered by overnight courier on wet ice. The tissue was cleaned, disinfected in betadine and 70% ethanol, then cut into pieces approximately 1-cm^2. Each piece was inoculated with VZV-BAC-Luc strain that expresses firefly luciferase. Approximately 3 hours after inoculation, the pieces of skin were placed in NetWells above tissue culture medium and incubated overnight. The next day (Day 1) each piece of skin was soaked in D-luciferin for 45 min, and then scanned in the IVIS-50 instrument to measure Total Flux, which is a correlate of VZV pfu. The negative control group was not treated with drug or vehicle. The positive control drug treatment began on Day 1 by placing the skin, in NetWells, over medium containing 0.1 μg/mL N-MCT (see Table 5 below). The ointments were formulated with N-MCT by adding dry powder to the vehicle on a glass slab, then mixing thoroughly with a metal spatula. The ointments were warmed to 37° C. before spreading on the skin pieces with a Dacron swab. […] The virus yield in each piece of skin was calculated by dividing the Total Flux measured on Day 5 by Day […]"}, "[6]": {"settings": "50 mg/kg oral gavage, delayed-treatment study"}, "[7]": {"settings": "all doses, dose-range study in mice"}}, "note": "“Also recorded” adds a separate entry of the source.", "data": [{"smiles": "Cc1cn([C@]23C[C@H](O)[C@@H](CO)[C@@H]2C3)c(=O)[nH]c1=O", "note": "[N-MCT, N-methanocarbathymidine]", "values": [{"measurement": "VZV yield", "setting": "VZV [1]; 0.5% N-MCT in 1% DMSO or 10% HPBCD carbopol gel, Days 1-4", "value": "substantial decrease"}, {"measurement": "cyclodextrin preparation compared with DMSO prep", "setting": "VZV [1]; 0.5% N-MCT in 10% HPBCD vs 1% DMSO carbopol", "value": "slightly more effective"}, {"measurement": "VZV rebound after treatment stopped", "setting": "VZV [1]; scans on Day 7 and Day 11, no drug after Day 5", "value": "no rebound"}, {"measurement": "tolerability", "setting": "[2]; [6]", "value": "well tolerated; also recorded: well-tolerated"}, {"measurement": "weight loss", "setting": "[2]; [6]", "value": "minimal weight loss"}, {"measurement": "tolerability", "setting": "[2]; [7]", "value": "well tolerated"}, {"measurement": "weight loss", "setting": "[2]; [7]", "value": "did not cause excessive weight loss"}, {"measurement": "VZV yield, treatment on Days 3-6", "setting": "VZV [3]; 0.5% N-MCT QD 3-6 dpi, by Day 7", "value": "reduced to a similar low level"}, {"measurement": "VZV yield, treatment begun on Day 5", "setting": "VZV [3]; 0.5% N-MCT QD 5-8 dpi", "value": "decreased sharply"}, {"measurement": "VZV rebound after treatment on Days 1-4", "setting": "VZV [3]; 0.5% N-MCT in carbopol with 10% HPBCD", "value": "no rebound was observed"}, {"measurement": "VZV yield, treatment on Days 1-4", "setting": "VZV [3]; 0.5% in carbopol QD 1-4 dpi, during and after treatment", "value": "equally reduced"}, {"measurement": "effectiveness as topical treatment when VZV infection established for 3-5 days", "setting": "VZV [3]; skin organ culture", "value": "highly effective"}, {"measurement": "effectiveness in vivo when treatment is delayed", "setting": "VZV [4]", "value": "effective; also recorded: can be delayed up to one week after infection"}, {"measurement": "effectiveness as topical formulation in SOC model", "setting": "VZV [5]; 0.5% N-MCT in ointments, daily, scan Day 5", "value": "highly effective"}, {"measurement": "virus yield on Day 10 after treatment stopped, fold less", "setting": "VZV [5]; no treatment after Day 5, groups treated with N-MCT", "value": 100, "unit": "fold"}]}]}
